Measurements from PubChem BioAssay AID1845217 (Molecular Pharmacology Branch, DTP, NCI, 2023).
pIC50: −log10 of the molar value.

System: VA-ES-BJ tumor spheroid viability
Assay: Anticancer human tumor VA-ES-BJ cell line growth inhibition;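 also: spheroids exposed to compounds for seven days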;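 as to viability, T/C: percent of DMSO vehicle control viability so 100% = untreated growth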
Conditions: spheroids with HUVEC and MSC; for pIC50: curve of first compound; for viability, T/C: stronger effect = lower value
In short: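 Single agents and combinations were tested on spheroids built from tumor cells plus HUVEC and hMSC, at half-log dilutions starting at or near clinical Cmax, else 10 microM; final DMSO 0.25% (v/v).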

[1] = second compound 0.003 µM, first compound 0.0316 µM
[2] = second compound 0.003 µM, first compound 0.1 µM
[3] = second compound 0.003 µM, first compound 0.316 µM
[4] = second compound 0.003 µM, first compound 1 µM
[5] = second compound 0.003 µM, first compound 3.16 µM
[6] = second compound 0.003 µM, first compound 10 µM
[7] = second compound 0.00949 µM, first compound 0.0316 µM
[8] = second compound 0.00949 µM, first compound 0.1 µM
[9] = second compound 0.00949 µM, first compound 0.316 µM
[10] = second compound 0.00949 µM, first compound 1 µM
[11] = second compound 0.00949 µM, first compound 3.16 µM
[12] = second compound 0.00949 µM, first compound 10 µM
[13] = second compound 0.03 µM, first compound 0.0316 µM
[14] = second compound 0.03 µM, first compound 0.1 µM
[15] = second compound 0.03 µM, first compound 0.316 µM
[16] = second compound 0.03 µM, first compound 1 µM
[17] = second compound 0.03 µM, first compound 3.16 µM
[18] = second compound 0.03 µM, first compound 10 µM
[19] = second compound 0.0949 µM, first compound 0.0316 µM
[20] = second compound 0.0949 µM, first compound 0.1 µM
[21] = second compound 0.0949 µM, first compound 0.316 µM
[22] = second compound 0.0949 µM, first compound 1 µM
[23] = second compound 0.0949 µM, first compound 3.16 µM
[24] = second compound 0.0949 µM, first compound 10 µM
[25] = second compound 0.3 µM, first compound 0.0316 µM
[26] = second compound 0.3 µM, first compound 0.1 µM
[27] = second compound 0.3 µM, first compound 0.316 µM
[28] = second compound 0.3 µM, first compound 1 µM
[29] = second compound 0.3 µM, first compound 3.16 µM
[30] = second compound 0.3 µM, first compound 10 µM

Row | Structure (SMILES) | pIC50 (second compound 0.003 µM) | pIC50 (second compound 0.00949 µM) | pIC50 (second compound 0.03 µM) | pIC50 (second compound 0.0949 µM) | pIC50 (second compound 0.3 µM) | viability, T/C [1] [%] | viability, T/C [2] [%] | viability, T/C [3] [%] | viability, T/C [4] [%] | viability, T/C [5] [%] | viability, T/C [6] [%] | viability, T/C [7] [%] | viability, T/C [8] [%] | viability, T/C [9] [%] | viability, T/C [10] [%] | viability, T/C [11] [%] | viability, T/C [12] [%] | viability, T/C [13] [%] | viability, T/C [14] [%] | viability, T/C [15] [%] | further results
1 | COc1cc(C)[nH]c(=O)c1CN1CCc2c(Cl)cc(C(OC)C3COC3)c(Cl)c2C1=O (stereo not given) + CC[C@@]1(O)C(=O)OCc2c1cc1n(c2=O)Cc2cc3c(CN(C)C)c(O)ccc3nc2-1 | < 5.00 | 5.29 | > 7.50 | > 7.50 | > 7.50 | 99.6 | 88.8 | 70.9 | 64.2 | 54.9 | 52.5 | 93.2 | 88.8 | 74.5 | 65.5 | 53 | 45.4 | 50.1 | 47.5 | 47.3 | viability, T/C [16]: 46.9%; viability, T/C [17]: 42.3%; viability, T/C [18]: 38.4%; viability, T/C [19]: 8.85%; viability, T/C [20]: 9.47%; viability, T/C [21]: 8.43%; viability, T/C [22]: 8.57%; viability, T/C [23]: 8.44%; viability, T/C [24]: 9.48%; viability, T/C [25]: 6.48%; viability, T/C [26]: 6.48%; viability, T/C [27]: 6.57%; viability, T/C [28]: 6.59%; viability, T/C [29]: 5.96%; viability, T/C [30]: 6.06%
2 | COc1ccc([C@@H](O)c2cc(-c3ncnc4cc(N5CCOCC5)ccc34)c(F)cc2Cl)nn1 + CC[C@@]1(O)C(=O)OCc2c1cc1n(c2=O)Cc2cc3c(CN(C)C)c(O)ccc3nc2-1 | 6.02 | 6.21 | 7.10 | > 7.50 | > 7.50 | 94.8 | 93.4 | 71 | 52.6 | 19.9 | 9.59 | 89.4 | 77.2 | 65.4 | 40.6 | 15.8 | 8.03 | 51.3 | 50.9 | 40.5 | viability, T/C [16]: 26.2%; viability, T/C [17]: 13.8%; viability, T/C [18]: 7.2%; viability, T/C [19]: 8.47%; viability, T/C [20]: 9.28%; viability, T/C [21]: 9.08%; viability, T/C [22]: 8.66%; viability, T/C [23]: 7.19%; viability, T/C [24]: 6.29%; viability, T/C [25]: 6.47%; viability, T/C [26]: 6.18%; viability, T/C [27]: 7.16%; viability, T/C [28]: 7.21%; viability, T/C [29]: 6.83%; viability, T/C [30]: 6.76%
3 | [2H]c1nc(C)nc([2H])c1-c1cc(NC[C@@H](C)c2cccc3c(C(=O)NC)ccnc23)ncn1 + CC[C@@]1(O)C(=O)OCc2c1cc1n(c2=O)Cc2cc3c(CN(C)C)c(O)ccc3nc2-1 | < 5.00 | < 5.00 | 6.69 | > 7.50 | > 7.50 | 101 | 95.9 | 99.5 | 100 | 105 | 100 | 90.1 | 90.6 | 90.6 | 92.4 | 87.3 | 81.6 | 53.3 | 48.2 | 49.9 | viability, T/C [16]: 50.2%; viability, T/C [17]: 46.4%; viability, T/C [18]: 46%; viability, T/C [19]: 9.76%; viability, T/C [20]: 8.96%; viability, T/C [21]: 7.7%; viability, T/C [22]: 8.02%; viability, T/C [23]: 8.96%; viability, T/C [24]: 8.01%; viability, T/C [25]: 6.31%; viability, T/C [26]: 6.82%; viability, T/C [27]: 5.89%; viability, T/C [28]: 5.88%; viability, T/C [29]: 5.82%; viability, T/C [30]: 5.63%
